Measured values as given in patent US9079886B2, “Substituted triazole derivatives as gamma secretase modulators” (Janssen Pharmaceuticals, Inc., priority 2010, dated 2015).
Where a name gives a salt, the structure may show the parent alone.

Compared with `COc1cc(Nc2nc(N3C[C@@H](C)O[C@@H](C)C3)n(C(C)C)n2)ccc1-n1cnc(C)c1` [Compound 55], `COc1cccc(C2CCN(c3nc(Nc4ccc(-n5cnc(C)c5)c(OC)c4)nn3C(C)C)C2)c1` (stereo not shown) [Compound 53] is lower in melting point: 189.4 °C for the first, 169.9 °C for the second.

First: Cc1cc(-c2ccc(Nc3nc(Oc4c(C)cccc4Cl)n(C(C)C)n3)cc2)ccn1 [Compound 155]
Second: Cc1cc(-c2ccc(Nc3nc(Oc4cccc(Cl)c4C)n(C(C)C)n3)cc2)ccn1 [Compound 157]
The melting point of the first is higher: 222.6 °C for the first, 159.6 °C for the second.

Compared with `COc1cc(Nc2nc(Cc3cccc(C(F)(F)F)c3)n(CCNC(C)=O)n2)ccc1-n1cnc(C)c1` [Compound 1], `COc1cc(Nc2nc(Oc3ccccc3Cl)n(C)n2)ccc1-n1cnc(C)c1` [Compound 51] is higher in melting point: 179 °C for the first, 210.1 °C for the second.

Compared with `COc1nc(Nc2nc(-c3cccc(C(F)(F)F)c3)n(C(C)C)n2)ccc1-n1cnc(C)c1` [Compound 17], `COc1cc(Nc2nc(-c3cccc(C(F)(F)F)c3)n(C(C)C)n2)ccc1-c1ccnc(C)c1` [Compound 136] is higher in melting point: 185.1 °C for the first, 221.9 °C for the second.

First: COc1ccc(-c2ccc(Nc3nc(Oc4ccc(F)cc4C)n(C(C)C)n3)cc2)cn1 [Compound 179]
Second: Cc1cc(F)ccc1Oc1nc(Nc2ccc(-c3ccnc(C(F)(F)F)c3)cc2)nn1C(C)C [Compound 177]
The melting point of the first is lower: 142.7 to 144.7 °C for the first, 165.9 to 166.9 °C for the second.

Going from `Cc1cc(-c2ccc(Nc3nc(-c4cccc(C(F)(F)F)c4)n(C)n3)cc2)ccn1` [Compound 60] to `Cc1cc(-c2ccc(Nc3nc(-c4cccc(C(F)(F)F)c4)n(C(C)C)n3)cc2)ccn1` [Compound 137], the melting point rises from 184.2 °C to 210.3 °C.

Going from `COc1cc(Nc2nc(Oc3cccc(Cl)c3C)n(C(C)C)n2)ccc1-n1cnc(C)n1` [Compound 8] to `COc1cc(Nc2nc(Oc3ccccc3Cl)n(C(C)C)n2)ccc1-n1cnc(C)n1` [Compound 4], the melting point rises from 157.2 °C to 202.7 °C.

Compared with `COc1cc(Nc2nc(Oc3ccccc3Cl)n(CC(OC)OC)n2)ccc1-c1ccnc(C)c1` [Compound 147], `COc1cc(Nc2nc(Oc3ccccc3Cl)n(C)n2)ccc1-c1ccnc(C)c1` [Compound 61] is higher in melting point: 90.1 °C for the first, 175 °C for the second.

First: COc1cc(Nc2nc(N3CCCC(c4ccccc4)C3)n(C(C)C)n2)ccc1-n1cnc(C)c1 (stereo not shown) [Compound 18]
Second: COc1cc(Nc2nc(N3CCc4ccccc4C3)n(C)n2)ccc1-n1cnc(C)c1 [Compound 56]
The melting point of the first is lower: 164.2 °C for the first, 170.1 °C for the second.

Going from `COc1cc(Nc2nc(OC3CCCC(C(F)(F)F)C3)n(C(C)C)n2)ccc1-c1ccnc(C)c1` (stereo not shown) (as salt: HCl) (hydrate or solvate) [Compound 117] to `COc1cc(Nc2nc(Oc3ccc(F)cc3C(F)(F)F)n(C(C)C)n2)ccc1-c1ccnc(C)c1` [Compound 169], the melting point rises from 131.5 °C to 134.8 °C.

First: COc1cc(Nc2nc(Oc3cccc(Cl)c3)n(C(C)C)n2)ccc1-c1ccnc(C)c1 [Compound 158]
Second: COc1cc(Nc2nc(Oc3cccc(N4CCOCC4)c3)n(C(C)C)n2)ccc1-c1ccnc(C)c1 [Compound 171]
The melting point of the first is lower: 125.4 °C for the first, 169.3 °C for the second.

First: COc1cc(Nc2nc(N3CCN(C(=O)OC(C)(C)C)CC3)n(C(C)C)n2)ccc1-c1ccnc(C)c1 [Compound 132]
Second: COc1cc(Nc2nc(N3CCCN(C(C)=O)CC3)n(C(C)C)n2)ccc1-c1ccnc(C)c1 [Compound 176]
The melting point of the first is higher: 177.1 °C for the first, 158.4 °C for the second.

First: COc1cc(Nc2nc(Oc3ccc(F)cc3C)n(C(C)C)n2)ccc1-c1ccnc(C)c1 [Compound 163]
Second: Cc1cc(-c2ccc(Nc3nc(Oc4cc(F)ccc4Cl)n(C(C)C)n3)cc2)ccn1 [Compound 161]
The melting point of the first is higher: 172.7 °C for the first, 132.7 °C for the second.

First: COc1cc(Nc2nc(Oc3ccccc3C(F)(F)F)n(C)n2)ccc1-c1ccnc(C)c1 [Compound 166]
Second: Cn1nc(Nc2ccc(-c3ccncc3)cc2)nc1-c1cccc(C(F)(F)F)c1 [Compound 113]
The melting point of the first is lower: 159.6 °C for the first, 220.7 °C for the second.
